≈ marks a conversion by molar mass, not a printed value.
Assays:
[1] = tested on: Mycolicibacterium smegmatis; assay: Antitubercular activity against Mycobacterium smegmatis mc2155 ATCC 700084 cultured in GAST-Fe media incubated for 24 hrs by resazurin microtiter assay; type: functional
[2] = tested on: Mycobacterium tuberculosis; assay: microbe, parasite or virus in culture; conditions: H37Rv ATCC 27294, 192 h
[3] = tested on: Mycolicibacterium smegmatis; assay: Antitubercular activity against Mycobacterium smegmatis mc2155 ATCC 700084 cultured in GAST media incubated for 24 hrs by resazurin microtiter assay; type: functional
[4] = tested on: Mycobacterium tuberculosis; assay: microbe, parasite or virus in culture; conditions: H37Rv ATCC 27294, 192 h; remark: listed apart in the source
Mycolicibacterium aurum [5] = assay: Antimycobacterial activity against Mycobacterium aurum ATCC 10437 cultured in GAST-Fe media incubated for 72 hrs by resazurin microtiter assay; type: functional
Mycolicibacterium aurum [6] = assay: Antimycobacterial activity against Mycobacterium aurum ATCC 10437 cultured in GAST media incubated for 72 hrs by resazurin microtiter assay; type: functional

Row | SMILES | MIC90 [1] [µg/mL] | MIC90 [2] [µg/mL] | MIC90 [3] [µg/mL] | MIC90 [4] [µg/mL] | MIC90 (Mycolicibacterium aurum [5]) [µg/mL] | MIC90 (Mycolicibacterium aurum [6]) [µg/mL]
1 | Oc1ccccc1C1=NNC(c2ccccc2O)C1 (stereo not given) | 64 (≈ 252 µM) | 64 (≈ 252 µM) | 64 (≈ 252 µM) | > 256 |  | 
2 | CC(=O)N1N=C(c2ccccc2O)CC1c1ccc(C)cc1 (stereo not given) | 256 (≈ 870 µM) | > 256 | > 256 | > 256 |  | 
3 | CC(=O)N1N=C(c2ccccc2O)CC1c1cccc(Br)c1 (stereo not given) | 256 (≈ 713 µM) | > 256 | > 256 | > 256 |  | 
4 | Cc1ccc(C2CC(c3ccccc3O)=NN2C(N)=S)cc1 (stereo not given) | > 256 | 8 (≈ 25.7 µM) | 128 (≈ 411 µM) | 8 (≈ 25.7 µM) |  | 
5 | Cc1ccccc1C1CC(c2ccccc2O)=NN1C(N)=S (stereo not given) | > 256 | 16 (≈ 51.4 µM) | 128 (≈ 411 µM) | 16 (≈ 51.4 µM) |  | 
6 | Oc1ccccc1C1=NNC(c2cccc(F)c2)C1 (stereo not given) | 64 (≈ 250 µM) | 64 (≈ 250 µM) | 16 (≈ 62.4 µM) | 256 (≈ 999 µM) |  | 
7 | COc1ccccc1C1CC(c2ccccc2O)=NN1C(C)=O (stereo not given) | > 256 | > 256 | > 256 | > 256 |  | 
8 | CC(=O)N1N=C(c2ccccc2O)CC1c1cccc(F)c1 (stereo not given) | 128 (≈ 429 µM) | 64 (≈ 215 µM) | 128 (≈ 429 µM) | 256 (≈ 858 µM) |  | 
9 | Cc1ccccc1C1CC(c2ccccc2O)=NN1 (stereo not given) | 128 (≈ 507 µM) | 16 (≈ 63.4 µM) | 16 (≈ 63.4 µM) | 64 (≈ 254 µM) |  | 
10 | CC(=O)N1N=C(c2ccccc2O)CC1c1ccccc1 (stereo not given) | > 256 | > 256 | > 256 | > 256 |  | 
11 | Cc1ccc(C2CC(c3ccccc3O)=NN2)cc1 (stereo not given) | 64 (≈ 254 µM) | 8 (≈ 31.7 µM) | 16 (≈ 63.4 µM) | 32 (≈ 127 µM) |  | 
12 | CC(=O)N1N=C(c2ccccc2O)CC1c1ccc(Br)cc1 (stereo not given) | > 256 | > 256 | > 256 | > 256 |  | 
13 | CC(=O)N1N=C(c2ccccc2O)CC1c1ccccc1C (stereo not given) | 256 (≈ 870 µM) | > 256 | > 256 | > 256 |  | 
14 | NC(=S)N1N=C(c2ccccc2O)CC1c1ccccc1 (stereo not given) | 256 (≈ 861 µM) | 4 (≈ 13.5 µM) | 128 (≈ 430 µM) | 128 (≈ 430 µM) | 64 (≈ 215 µM) | 64 (≈ 215 µM)
15 | Oc1ccccc1C1=NNC(c2ccccc2Br)C1 (stereo not given) | 64 (≈ 202 µM) | 16 (≈ 50.4 µM) | 8 (≈ 25.2 µM) | 32 (≈ 101 µM) |  | 
16 | COc1cccc(C2CC(c3ccccc3O)=NN2C(C)=O)c1 (stereo not given) | 256 (≈ 825 µM) | > 256 | > 256 | > 256 |  | 
17 | CC(=O)N1N=C(c2ccccc2O)CC1c1ccccc1F (stereo not given) | 256 (≈ 858 µM) | > 256 | 256 (≈ 858 µM) | > 256 |  | 
18 | NC(=S)N1N=C(c2ccccc2O)CC1c1cccc(O)c1 (stereo not given) | 256 (≈ 817 µM) | 16 (≈ 51.1 µM) | 128 (≈ 408 µM) | 128 (≈ 408 µM) |  | 
19 | CC(=O)N1N=C(c2ccccc2O)CC1c1cccc(Cl)c1 (stereo not given) | 128 (≈ 407 µM) | 256 (≈ 813 µM) | 128 (≈ 407 µM) | 256 (≈ 813 µM) |  | 
20 | COc1ccccc1C1CC(c2ccccc2O)=NN1 (stereo not given) | 128 (≈ 477 µM) | 32 (≈ 119 µM) | 64 (≈ 239 µM) | 256 (≈ 954 µM) |  | 
21 | COc1cccc(C2CC(c3ccccc3O)=NN2C(N)=S)c1 (stereo not given) | 256 (≈ 782 µM) | 32 (≈ 97.7 µM) | > 256 | 64 (≈ 195 µM) |  | 
22 | COc1ccc(C2CC(c3ccccc3O)=NN2C(C)=O)cc1 (stereo not given) | > 256 | > 256 | > 256 | > 256 |  | 
23 | NNC(=O)c1ccncc1 [ISONIAZID] | 2 (≈ 14.6 µM) | 0.03 (≈ 0.219 µM) | 2 (≈ 14.6 µM) | 0.005 (≈ 0.0365 µM) |  | 
24 | Oc1ccccc1C1=NNC(c2ccccc2F)C1 (stereo not given) | 64 (≈ 250 µM) | 16 (≈ 62.4 µM) | 8 (≈ 31.2 µM) | 64 (≈ 250 µM) |  | 
25 | NC(=S)N1N=C(c2ccccc2O)CC1c1ccc(O)cc1 (stereo not given) | > 256 | 64 (≈ 204 µM) | 256 (≈ 817 µM) | 256 (≈ 817 µM) | 128 (≈ 408 µM) | 64 (≈ 204 µM)

Row | SMILES | MIC90 [1] [µg/mL] | MIC90 [2] [µg/mL] | MIC90 [3] [µg/mL] | MIC90 [4] [µg/mL] | MIC90 (Mycolicibacterium aurum [5]) [µg/mL] | MIC90 (Mycolicibacterium aurum [6]) [µg/mL]
26 | CO[C@H]1/C=C/O[C@@]2(C)Oc3c(C)c(O)c4c(O)c(c(/C=N/N5CCN(C)CC5)c(O)c4c3C2=O)NC(=O)/C(C)=C\C=C\[C@H](C)[C@H](O)[C@@H](C)[C@@H](O)[C@@H](C)[C@H](OC(C)=O)[C@@H]1C [RIFAMPIN] | 8 (≈ 9.72 µM) | 0.03 (≈ 0.0365 µM) | 8 (≈ 9.72 µM) | 0.005 (≈ 0.00608 µM) |  | 
27 | Oc1ccccc1C1=NNC(c2ccc(F)cc2)C1 (stereo not given) | 64 (≈ 250 µM) | 16 (≈ 62.4 µM) | 8 (≈ 31.2 µM) | 128 (≈ 499 µM) |  | 
28 | NC(=S)N1N=C(c2ccccc2O)CC1c1cccc(Cl)c1 (stereo not given) | 256 (≈ 771 µM) | 16 (≈ 48.2 µM) | 256 (≈ 771 µM) | 32 (≈ 96.4 µM) |  | 
29 | CC(=O)N1N=C(c2ccccc2O)CC1c1ccccc1Br (stereo not given) | > 256 | > 256 | > 256 | > 256 |  | 
30 | COc1ccc(C2CC(c3ccccc3O)=NN2)cc1 (stereo not given) | 128 (≈ 477 µM) | 32 (≈ 119 µM) | 64 (≈ 239 µM) | 128 (≈ 477 µM) |  | 
31 | COc1ccccc1C1CC(c2ccccc2O)=NN1C(N)=S (stereo not given) | 256 (≈ 782 µM) | 16 (≈ 48.9 µM) | 256 (≈ 782 µM) | 16 (≈ 48.9 µM) |  | 
32 | NC(=S)N1N=C(c2ccccc2O)CC1c1ccc(Cl)cc1 (stereo not given) | 256 (≈ 771 µM) | 4 (≈ 12.1 µM) | 128 (≈ 386 µM) | 8 (≈ 24.1 µM) |  | 
33 | COc1ccc(C2CC(c3ccccc3O)=NN2C(N)=S)cc1 (stereo not given) | > 256 | 64 (≈ 195 µM) | 128 (≈ 391 µM) | > 256 |  | 
34 | CC(=O)N1N=C(c2ccccc2O)CC1c1ccc(F)cc1 (stereo not given) | 128 (≈ 429 µM) | 128 (≈ 429 µM) | 128 (≈ 429 µM) | 256 (≈ 858 µM) |  | 
35 | Oc1ccccc1C1=NNC(c2ccccc2Cl)C1 (stereo not given) | 64 (≈ 235 µM) | 16 (≈ 58.7 µM) | 8 (≈ 29.3 µM) | 32 (≈ 117 µM) |  | 
36 | Oc1ccc(C2CC(c3ccccc3O)=NN2)cc1 (stereo not given) | 64 (≈ 252 µM) | 128 (≈ 503 µM) | 32 (≈ 126 µM) | > 256 |  | 
37 | CC(=O)N1N=C(c2ccccc2O)CC1c1ccc(O)cc1 (stereo not given) | > 256 | > 256 | > 256 | > 256 |  | 
38 | CC(=O)N1N=C(c2ccccc2O)CC1c1cccc(O)c1 (stereo not given) | > 256 | > 256 | > 256 | > 256 |  | 
39 | CC(=O)N1N=C(c2ccccc2O)CC1c1ccccc1Cl (stereo not given) | 256 (≈ 813 µM) | > 256 | > 256 | > 256 |  | 
40 | CC(=O)N1N=C(c2ccccc2O)CC1c1ccccc1O (stereo not given) | > 256 | > 256 | > 256 | 256 (≈ 864 µM) |  | 
41 | NC(=S)N1N=C(c2ccccc2O)CC1c1ccccc1O (stereo not given) | 256 (≈ 817 µM) | 256 (≈ 817 µM) | 64 (≈ 204 µM) | 256 (≈ 817 µM) |  | 
42 | Oc1ccccc1C1=NNC(c2ccccc2)C1 (stereo not given) | 128 (≈ 537 µM) | 32 (≈ 134 µM) | 64 (≈ 269 µM) | 128 (≈ 537 µM) |  | 
43 | COc1ccc(C2CC(c3ccccc3O)=NN2C(N)=S)cc1O (stereo not given) | 128 (≈ 373 µM) | 8 (≈ 23.3 µM) | 128 (≈ 373 µM) | 16 (≈ 46.6 µM) |  | 
44 | COc1ccc(C2CC(c3ccccc3O)=NN2)cc1O (stereo not given) | > 256 | 128 (≈ 450 µM) | > 256 | 256 (≈ 900 µM) |  | 
45 | NC(=S)N1N=C(c2ccccc2O)CC1c1ccccc1F (stereo not given) | 128 (≈ 406 µM) | 16 (≈ 50.7 µM) | 128 (≈ 406 µM) | 32 (≈ 101 µM) |  | 
46 | Oc1cccc(C2CC(c3ccccc3O)=NN2)c1 (stereo not given) | 64 (≈ 252 µM) | 64 (≈ 252 µM) | 64 (≈ 252 µM) | > 256 |  | 
47 | NC(=S)N1N=C(c2ccccc2O)CC1c1ccccc1Cl (stereo not given) | 256 (≈ 771 µM) | 8 (≈ 24.1 µM) | 256 (≈ 771 µM) | 16 (≈ 48.2 µM) |  | 
48 | COc1ccc(C2CC(c3ccccc3O)=NN2C(C)=O)cc1O (stereo not given) | > 256 | > 256 | > 256 | > 256 |  | 
49 | CC(=O)N1N=C(c2ccccc2O)CC1c1ccc(Cl)cc1 (stereo not given) | 256 (≈ 813 µM) | > 256 | > 256 | > 256 |  | 
